Values quoted from earlier work as cited in patent US8377484B1, “Tumor encapsulation for prevention and treatment of metastatic cancer disease” (priority 2004, dated 2013).

Assays:
[1] = system: human breast cancer cells
[2] = system: Cultured primary rat Schwann cells
[3] = system: differentiated C2C12 myotubes

Row | Compound | inhibition of cancer cells proliferation [1] | promotion of BM competency ([2]; cell cultures of glial Schwann cells) | promotion of BM competency ([3]; cell cultures of differentiated myotubes) | concentration able to induce BM assembly ([2]; cultured cells in vitro) [mkg/ml] | time for laminin-based BM to form on myotube surface ([3]; incubation with 5-10 microg/ml of laminin-1) [h]
1 | O=c1c(-c2ccc(O)cc2)coc2cc(O)ccc12 [daidzein] | inhibit cancer cells proliferation |  |  |  | 
2 | O=c1c(-c2ccc(O)cc2)coc2cc(O)cc(O)c12 [genistein, 5,7,4′-trihydroxyisoflavone] | inhibit cancer cells proliferation | promote BM competency | promote BM competency |  | 
3 | EHS Laminin-1: major BM structural protein, heterotrimeric laminin from mouse EHS |  |  |  | 2 | ≤ 4
